Results reported in patent publication US8163766B2, “Beta-secretase modulators and methods of use” (Amgen Inc., priority 2005, dated 2012).

Tested on: Aβ 40 in conditioned media of cells stably expressing Amyloid Precursor Protein (APP)
Experiment: BACE Cell-Based Assay (Aβ40 in conditioned medium, sandwich ELISA)
Details: 24 hours of incubation with the test compounds, Aβ 40 by sandwich ELISA, read-out: IC50 values in the cell-based assay (inhibition of Aβ 40)
How it was run: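 APP-stably-expressing cells in DMEM/10% FBS exposed 24 h to 10-point compound dilutions starting at 100 or 10 μM, 0.1% DMSO final. Aβ40 in conditioned medium measured by sandwich ELISA (pAb40 capture, biotinylated 6E10 detection, Eu time-resolved fluorescence); IC50 from percent inhibition versus concentration.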

Row | IC50 [µM] | SMILES
1 | ≤ 5 | COCCNc1ccc2c(c1)[C@@H](NC[C@@H](O)[C@H](Cc1ccccc1)NC(=O)c1cc(-c3ccccn3)c(=O)n(C3CCCC3)c1)CC(C)(C)C2=O [Example 505, 1′-cyclopentyl-N-((1S,2R)-3-(((1S)-3,3-dimethyl-7-((2-(methyloxy)ethyl)amino)-4-oxo-1,2,3,4-tetrahydro-1-naphthalenyl)amino)-2-hydroxy-1-(phenylmethyl)propyl)-2′-oxo-1′,2′-dihydro-2,3′-bipyridine-5′-carboxamide]
2 | ≤ 5 | COCCNc1ccc2c(c1)[C@@H](NC[C@@H](O)[C@@H](Cc1ccccc1)NC(=O)c1cc(-c3ccccn3)c(=O)n(C3CCCC3)c1)CC(C)(C)C2=O [Example 507, 1′-cyclopentyl-N-((1R,2R)-3-(((1S)-3,3-dimethyl-7-((2-(methyloxy)ethyl)amino)-4-oxo-1,2,3,4-tetrahydro-1-naphthalenyl)amino)-2-hydroxy-1-(phenylmethyl)propyl)-2′-oxo-1′,2′-dihydro-2,3′-bipyridine-5′-carboxamide]
3 | ≤ 5 | CCc1cc2c(s1)CC1(CCC1)C[C@@H]2NC[C@@H](O)[C@H](Cc1ccccc1)NC(=O)c1cc(-c2ccccn2)c(=O)n(C(C)C)c1 [Example 508, N-((1S,2R)-3-(((4S)-2-ethyl-4,7-dihydro-5H-spiro[1-benzothiophene-6,1′-cyclobutan]-4-yl)amino)-2-hydroxy-1-(phenylmethyl)propyl)-1′-(1-methylethyl)-2′-oxo-1′,2′-dihydro-2,3′-bipyridine-5′-carboxamide]
4 | ≤ 5 | Cc1cnc2c(c1)[C@@H](NC[C@@H](O)[C@H](Cc1cc(F)cc(F)c1)NC(=O)[C@@H]1CCOC1)CC1(CCC1)C2 [Example 509, (3R)-N-((1S,2R)-1-((3,5-difluorophenyl)methyl)-2-hydroxy-3-(((5′S)-3′-methyl-5′,8′-dihydro-6′H-spiro[cyclobutane-1,7′-quinolin]-5′-yl)amino)propyl)tetrahydro-3-furancarboxamide]
5 | ≤ 5 | Cc1cnc2c(c1)[C@@H](NC[C@@H](O)[C@H](Cc1cc(F)cc(F)c1)NC(=O)C1CCOCC1)CC1(CCC1)C2 [Example 510, N-((1S,2R)-1-((3,5-difluorophenyl)methyl)-2-hydroxy-3-(((5′S)-3′-methyl-5′,8′-dihydro-6′H-spiro[cyclobutane-1,7′-quinolin]-5′-yl)amino)propyl)tetrahydro-2H-pyran-4-carboxamide]
6 | ≤ 5 | CCc1ccc2c(c1)[C@@H](NC[C@@H](O)[C@H](Cc1ccccc1)NC(=O)[C@H]1CN(C(=O)c3cccc(C)c3)CCO1)CC1(CCC1)O2 [Example 511, (2R)-N-((1S,2R)-3-(((4S)-6-ethyl-3,4-dihydrospiro[chromene-2,1′-cyclobutan]-4-yl)amino)-2-hydroxy-1-(phenylmethyl)propyl)-4-((3-methylphenyl)carbonyl)-2-morpholinecarboxamide]
7 | ≤ 5 | CC1(C)Oc2ncccc2[C@H]1NC[C@@H](O)[C@H](Cc1ccccc1)NC(=O)c1cc(-c2ccccn2)c(=O)n(C2CCCC2)c1 [Example 512, 1′-cyclopentyl-N-((1S,2R)-3-(((3R)-2,2-dimethyl-2,3-dihydrofuro[2,3-b]pyridin-3-yl)amino)-2-hydroxy-1-(phenylmethyl)propyl)-2′-oxo-1′,2′-dihydro-2,3′-bipyridine-5′-carboxamide]
8 | ≤ 5 | CC1(C)Oc2ncccc2[C@@H]1NC[C@@H](O)[C@H](Cc1ccccc1)NC(=O)c1cc(C2=CC=CCN2)c(=O)n(C2CCCC2)c1 [Example 513, 1′-cyclopentyl-N-((1S,2R)-3-(((3S)-2,2-dimethyl-2,3-dihydrofuro[2,3-b]pyridin-3-yl)amino)-2-hydroxy-1-(phenylmethyl)propyl)-2′-oxo-1,2′-dihydro-2,3′-bipyridine-5′-carboxamide]
9 | ≤ 5 | CCc1cc2c(s1)CC(C)(C)C[C@@H]2NC[C@@H](O)[C@H](Cc1ccccc1)NC(=O)[C@@H]1CN(C(=O)c2cccc(C)c2)CCO1 [Example 514, (2S)-N-((1S,2R)-3-(((4S)-2-ethyl-6,6-dimethyl-4,5,6,7-tetrahydro-1-benzothien-4-yl)amino)-2-hydroxy-1-(phenylmethyl)propyl)-4-((3-methylphenyl)carbonyl)-2-morpholinecarboxamide]
10 | ≤ 5 | CCc1cc2c(s1)CC(C)(C)C[C@@H]2NC[C@@H](O)[C@H](Cc1ccccc1)NC(=O)[C@H]1CN(C(=O)c2cccc(C)c2)CCO1 [Example 515, (2R)-N-((1S,2R)-3-(((4S)-2-ethyl-6,6-dimethyl-4,5,6,7-tetrahydro-1-benzothien-4-yl)amino)-2-hydroxy-1-(phenylmethyl)propyl)-4-((3-methylphenyl)carbonyl)-2-morpholinecarboxamide]
11 | ≤ 5 | CC1(C)Cc2ccc(O[C@H]3CCOC3)cc2[C@@H](NC[C@@H](O)[C@H](Cc2ccccc2)NC(=O)[C@H]2CCC(=O)O2)C1 [Example 516, (2R)-N-((1S,2R)-3-(((1S)-3,3-dimethyl-7-((3S)-tetrahydro-3-furanyloxy)-1,2,3,4-tetrahydro-1-naphthalenyl)amino)-2-hydroxy-1-(phenyl-methyl)propyl)-5-oxotetrahydro-2-furancarboxamide]
12 | ≤ 5 | CC1(C)Cc2ccc(O[C@H]3CCOC3)cc2[C@@H](NC[C@@H](O)[C@H](Cc2ccccc2)NC(=O)[C@@H]2CCC(=O)O2)C1 [Example 517, (2S)-N-((1S,2R)-3-(((1S)-3,3-dimethyl-7-((3S)-tetrahydro-3-furanyloxy)-1,2,3,4-tetrahydro-1-naphthalenyl)amino)-2-hydroxy-1-(phenyl-methyl)propyl)-5-oxotetrahydro-2-furancarboxamide]
13 | ≤ 5 | CC1(C)Cc2ccc(O[C@H]3CCOC3)cc2[C@@H](NC[C@@H](O)[C@H](Cc2ccccc2)NC(=O)c2ccc(=O)n(C3CCCC3)c2)C1 [Example 518, 1-cyclopentyl-N-((1S,2R)-3-(((1S)-3,3-dimethyl-7-((3S)-tetrahydro-3-furanyloxy)-1,2,3,4-tetrahydro-1-naphthalenyl)amino)-2-hydroxy-1-(phenylmethyl)propyl)-6-oxo-1,6-dihydro-3-pyridinecarboxamide]
14 | ≤ 5 | CC1(C)Cc2ccc(O[C@H]3CCOC3)cc2[C@@H](NC[C@@H](O)[C@H](Cc2ccccc2)NC(=O)c2cc(-c3ccccn3)c(=O)n(C3CCCC3)c2)C1 [Example 519, 1′-cyclopentyl-N-((1S,2R)-3-(((1S)-3,3-dimethyl-7-((3S)-tetrahydro-3-furanyloxy)-1,2,3,4-tetrahydro-1-naphthalenyl)amino)-2-hydroxy-1-(phenylmethyl)propyl)-2′-oxo-1′,2′-dihydro-2,3′-bipyridine-5′-carboxamide]
15 | ≤ 5 | CCc1ccc2c(c1)[C@@H](NC[C@@H](O)[C@H](Cc1ccccc1)NC(=O)[C@@H]1CN(C(=O)N3CCO[C@@H](C)C3)CCO1)CC1(CCC1)O2 [Example 521, (2S)-N-((1S,2R)-3-(((4S)-6-ethyl-3,4-dihydrospiro[chromene-2,1′-cyclobutan]-4-yl)amino)-2-hydroxy-1-(phenylmethyl)propyl)-4-(((2S)-2-methyl-4-morpholinyl)carbonyl)-2-morpholinecarboxamide]
16 | ≤ 5 | CC(C)(C)Cc1cnc2c(c1)[C@@H](NC[C@@H](O)[C@H](Cc1ccccc1)NC(=O)c1cc(C3CCCCO3)c(=O)n(C3CCCC3)c1)CC1(CCC1)O2 (stereo partly drawn) [Example 522, 1-cyclopentyl-N-((1S,2R)-3-(((4′S)-6′-(2,2-dimethyl-propyl)-3′,4′-dihydrospiro[cyclobutane-1,2′-pyrano[2,3-b]pyridin]-4′-yl)amino)-2-hydroxy-1-(phenyl-methyl)propyl)-6-oxo-5-(tetrahydro-2H-pyran-2-yl)-1,6-dihydro-3-pyridinecarboxamide]
17 | ≤ 5 | CCc1cc2c(s1)CC(C)(C)C[C@@H]2NC[C@@H](O)[C@H](Cc1ccccc1)NC(=O)[C@H]1CC(=O)N(C2CCC2)C1 [Example 523, (3S)-1-cyclobutyl-N-((1S,2R)-3-(((4S)-2-ethyl-6,6-dimethyl-4,5,6,7-tetrahydro-1-benzothien-4-yl)amino)-2-hydroxy-1-(phenylmethyl)propyl)-5-oxo-3-pyrrolidinecarboxamide]
18 | ≤ 5 | O=C(N[C@@H](Cc1ccccc1)[C@H](O)CN[C@H]1CC2(CCC2)Oc2ccc(N3CCOCC3)cc21)[C@H]1CC(=O)N(C2CCC2)C1 [Example 524, (3S)-1-cyclobutyl-N-((1S,2R)-2-hydroxy-3-(((4S)-6-(4-morpholinyl)-3,4-dihydrospiro[chromene-2,1′-cyclobutan]-4-yl)amino)-1-(phenylmethyl)propyl)-5-oxo-3-pyrrolidinecarboxamide]
19 | ≤ 5 | CCc1ccc2c(c1)[C@@H](NC[C@@H](O)[C@H](Cc1cscn1)NC(=O)c1cc(-c3ccccn3)c(=O)n(C3CCCC3)c1)CC1(CCC1)O2 [Example 525, 1′-cyclopentyl-N-((1S,2R)-3-(((4S)-6-ethyl-3,4-dihydrospiro[chromene-2,1′-cyclobutan]-4-yl)amino)-2-hydroxy-1-(1,3-thiazol-4-ylmethyl)propyl)-2′-oxo-1′,2′-dihydro-2,3′-bipyridine-5′-carboxamide]
20 | ≤ 5 | O=C(N[C@@H](Cc1ccccc1)[C@H](O)CN[C@H]1CC2(CCC2)Oc2ccc(N3CCOCC3)cc21)[C@@H]1CN(C(=O)C2CCOCC2)CCO1 [Example 526, (2S)-N-((1S,2R)-2-hydroxy-3-(((4S)-6-(4-morpholinyl)-3,4-dihydrospiro[chromene-2,1′-cyclobutan]-4-yl)amino)-1-(phenylmethyl)propyl)-4-(tetrahydro-2H-pyran-4-ylcarbonyl)-2-morpholinecarboxamide]
21 | ≤ 5 | CCc1ccc2c(c1)[C@@H](NC[C@@H](O)[C@H](Cc1ccccc1)NC(=O)[C@@H]1C[C@@H](c3ccccc3)CN(C(=O)c3cccc(C)c3)C1)CC1(CCC1)O2 [Example 527, (3R,5S)-N-((1S,2R)-3-(((4S)-6-ethyl-3,4-dihydrospiro[chromene-2,1′-cyclobutan]-4-yl)amino)-2-hydroxy-1-(phenylmethyl)propyl)-1-((3-methylphenyl)carbonyl)-5-phenyl-3-piperidinecarboxamide]
